Data reported in patent EP0007672A1, “Isocyanoalkenes, process and useful intermediates for their preparation, pharmaceutical and fungicidal preparations containing those isocyanoalkenes and the use of the fungicidal preparations in agriculture” (GIST-BROCADES N.V., priority 1978, dated 1980).
In brackets after ≈: the same amount, converted by molar mass. Read-outs that look alike come from different tables or passages of the source.

Legend:
Assay in all cases: MIC (Minimum Inhibitory Concentration)
Type in all cases: cell-based
[1] = system: Candida albicans
Description: (§1) In addition they may be used for combatting plant diseases, in particular as fungicides. A list of MIC (Minimum Inhibitory Concentration) values for a number of microorganisms is listed herebelow. The figures in the column headings refer to the compounds prepared according to the experimental examples in comparison with the spectrum of 1-[2-(2,4-dichlorophenyl)-2-{(2,4-dichlorophenyl)-methoxy} -ethyl7-1H-imidazole (better known under the name of miconazole, c.f. Merck Index 9th Ed. page 6047) or natamycin (pimaricin, c.f. Merck Index 9th Ed. page 7233).

[2] = system: Trichophyton rubrum
Description: as §1

[3] = system: Trichophyton violoceum; conditions: Trichophyton violoceum 442-62; read-out: MIC values
Description: as §1

[4] = system: Trichophyton schoenleinii; conditions: Trichophyton schoenleinii 435-63; read-out: MIC values
Description: as §1

[5] = system: Trichophyton verrucosum
Description: as §1

[6] = system: Pasteurella multocida; conditions: Pasteurella multocida A 723; read-out: MIC values
Description: as §1

[7] = system: Streptococcus haemolyticus; conditions: Streptococcus haemolyticus A 1088; read-out: MIC values
Description: as §1

[8] = system: Trichophyton mentagrophytus
Description: as §1

[9] = system: Trichophyton quickeaneum; conditions: Trichophyton quickeaneum A 2040; read-out: MIC values
Description: as §1

[10] = system: Trichophyton tonsurans; conditions: Trichophyton tonsurans 561-50; read-out: MIC values
Description: as §1

[11] = system: Trichophyton equinum
Description: as §1

[12] = Candida albicans A 7, read-out: MIC values
[13] = Candida albicans A 3140, read-out: MIC values
[14] = Candida albicans A 3141, read-out: MIC values
[15] = Candida albicans A 3142, read-out: MIC values
[16] = Candida albicans A 3143, read-out: MIC values
[17] = Candida albicans A 3144, read-out: MIC values
[18] = Candida albicans A 3145, read-out: MIC values
[19] = Candida albicans A 3165, read-out: MIC values
[20] = Candida albicans A 3166, read-out: MIC values
[21] = Candida albicans A 3167, read-out: MIC values
[22] = Candida albicans A 3168, read-out: MIC values
[23] = Candida albicans A 3169, read-out: MIC values
[24] = Candida albicans A 3171, read-out: MIC values
[25] = Candida albicans A 3184, read-out: MIC values
[26] = Candida albicans A 3190, read-out: MIC values
[27] = Candida albicans A 3191, read-out: MIC values
[28] = Candida albicans A 3192, read-out: MIC values
[29] = Candida albicans A 3194, read-out: MIC values
[30] = Candida albicans A 3196, read-out: MIC values
[31] = Trichophyton rubrum 218-65, read-out: MIC values
[32] = Trichophyton rubrum 494-62, read-out: MIC values
[33] = Trichophyton rubrum A 810, read-out: MIC values
[34] = Trichophyton verrucosum 134-66, read-out: MIC values
[35] = Trichophyton verrucosum A 2922, read-out: MIC values
[36] = Trichophyton mentagrophytus 367-68, read-out: MIC values
[37] = Trichophyton mentagrophytus 421-67, read-out: MIC values
[38] = Trichophyton mentagrophytus A 3252, read-out: MIC values
[39] = Trichophyton mentagrophytus R 177, read-out: MIC values
[40] = Trichophyton mentagrophytus R 178, read-out: MIC values
[41] = Trichophyton equinum 182-76, read-out: MIC values
[42] = Trichophyton equinum 441-51, read-out: MIC values

MIC [1, 12] | MIC [1, 13] | MIC [1, 14] | MIC [1, 15] | MIC [1, 16] | MIC [1, 17] | MIC [1, 18] | MIC [1, 19] | MIC [1, 20] | MIC [1, 21] | MIC [1, 22] | MIC [1, 23] | MIC [1, 24] | MIC [1, 25] | MIC [1, 26] | MIC [1, 27] | MIC [1, 28] | MIC [1, 29] | MIC [1, 30] | MIC [2, 31] | Structure (SMILES) | also measured
0.75 µg/mL (≈ 2.47 µM) | 1.5 µg/mL (≈ 4.94 µM) | 1.5 µg/mL (≈ 4.94 µM) | 1.5 µg/mL (≈ 4.94 µM) | 1.5 µg/mL (≈ 4.94 µM) | 1.5 µg/mL (≈ 4.94 µM) | 3 µg/mL (≈ 9.89 µM) | 1.5 µg/mL (≈ 4.94 µM) | 1.5 µg/mL (≈ 4.94 µM) | 1.5 µg/mL (≈ 4.94 µM) | 3 µg/mL (≈ 9.89 µM) | 1.5 µg/mL (≈ 4.94 µM) | 1.5 µg/mL (≈ 4.94 µM) | 1.5 µg/mL (≈ 4.94 µM) | 1.5 µg/mL (≈ 4.94 µM) | 3 µg/mL (≈ 9.89 µM) | 1.5 µg/mL (≈ 4.94 µM) | 3 µg/mL (≈ 9.89 µM) | 1.5 µg/mL (≈ 4.94 µM) | 6 µg/mL (≈ 19.8 µM) | [C-]#[N+]C(=C(C)c1cccs1)S(=O)(=O)c1ccc(C)cc1 [Example 17, 1-isocyano-1-(4-toluenesulphonyl)-2-(2-thienyl)-1-propene] | MIC [2, 32]: 6 µg/mL (≈ 19.8 µM); MIC [2, 33]: 12.5 µg/mL (≈ 41.2 µM); MIC [3]: 3 µg/mL (≈ 9.89 µM); MIC [4]: 3 µg/mL (≈ 9.89 µM); MIC [5, 34]: 0.75 µg/mL (≈ 2.47 µM); MIC [5, 35]: 0.4 µg/mL (≈ 1.32 µM); MIC [6]: 3 µg/mL (≈ 9.89 µM); MIC [7]: 6 µg/mL (≈ 19.8 µM); MIC [8, 36]: 100 µg/mL (≈ 330 µM); MIC [8, 37]: > 100 µg/mL; MIC [8, 38]: 6 µg/mL (≈ 19.8 µM); MIC [8, 39]: > 100 µg/mL; MIC [8, 40]: > 100 µg/mL; MIC [9]: 6 µg/mL (≈ 19.8 µM); MIC [10]: < 0.4 µg/mL; MIC [11, 41]: > 100 µg/mL; MIC [11, 42]: 0.75 µg/mL (≈ 2.47 µM)
6 µg/mL (≈ 17.7 µM) | 6 µg/mL (≈ 17.7 µM) | 6 µg/mL (≈ 17.7 µM) | 6 µg/mL (≈ 17.7 µM) | 6 µg/mL (≈ 17.7 µM) | > 100 µg/mL | 6 µg/mL (≈ 17.7 µM) | 6 µg/mL (≈ 17.7 µM) | 6 µg/mL (≈ 17.7 µM) | 50 µg/mL (≈ 147 µM) | 6 µg/mL (≈ 17.7 µM) | 3 µg/mL (≈ 8.84 µM) | 3 µg/mL (≈ 8.84 µM) | 50 µg/mL (≈ 147 µM) | 6 µg/mL (≈ 17.7 µM) | > 100 µg/mL | 6 µg/mL (≈ 17.7 µM) | 6 µg/mL (≈ 17.7 µM) | 100 µg/mL (≈ 295 µM) | > 100 µg/mL | [C-]#[N+]C(=C(CCCC)c1ccccc1)S(=O)(=O)c1ccc(C)cc1 [Example 19, 2-phenyl-1-isocyano-1-(4-toluenesulphonyl)-1-hexene] | MIC [2, 32]: > 100 µg/mL; MIC [2, 33]: > 100 µg/mL; MIC [3]: > 100 µg/mL; MIC [4]: > 100 µg/mL; MIC [5, 34]: 3 µg/mL (≈ 8.84 µM); MIC [5, 35]: 3 µg/mL (≈ 8.84 µM); MIC [6]: > 100 µg/mL; MIC [7]: > 100 µg/mL; MIC [8, 36]: > 100 µg/mL; MIC [8, 37]: > 100 µg/mL; MIC [8, 38]: > 100 µg/mL; MIC [8, 39]: > 100 µg/mL; MIC [8, 40]: > 100 µg/mL; MIC [9]: > 100 µg/mL; MIC [10]: 0.4 µg/mL (≈ 1.18 µM); MIC [11, 41]: > 100 µg/mL; MIC [11, 42]: 3 µg/mL (≈ 8.84 µM)
50 µg/mL (≈ 144 µM) | 6 µg/mL (≈ 17.3 µM) | 25 µg/mL (≈ 71.9 µM) | 25 µg/mL (≈ 71.9 µM) | 50 µg/mL (≈ 144 µM) | 100 µg/mL (≈ 288 µM) | 25 µg/mL (≈ 71.9 µM) | 50 µg/mL (≈ 144 µM) | 25 µg/mL (≈ 71.9 µM) | > 100 µg/mL | 100 µg/mL (≈ 288 µM) | 25 µg/mL (≈ 71.9 µM) | 50 µg/mL (≈ 144 µM) | 50 µg/mL (≈ 144 µM) | 50 µg/mL (≈ 144 µM) | > 100 µg/mL | 50 µg/mL (≈ 144 µM) | 50 µg/mL (≈ 144 µM) | 50 µg/mL (≈ 144 µM) | 100 µg/mL (≈ 288 µM) | [C-]#[N+]C(=C(CCCCC)CCCCC)S(=O)(=O)c1ccc(C)cc1 [Example 26, 1-isocyana-2-pentyl-1-(4-toluenesulphonyl)-1-heptene] | MIC [2, 32]: 100 µg/mL (≈ 288 µM); MIC [2, 33]: 50 µg/mL (≈ 144 µM); MIC [3]: 100 µg/mL (≈ 288 µM); MIC [4]: 100 µg/mL (≈ 288 µM); MIC [6]: 100 µg/mL (≈ 288 µM); MIC [7]: > 100 µg/mL; MIC [8, 36]: > 100 µg/mL; MIC [8, 37]: 100 µg/mL (≈ 288 µM); MIC [8, 38]: > 100 µg/mL; MIC [8, 39]: > 100 µg/mL; MIC [8, 40]: > 100 µg/mL; MIC ([8]; Trichophyton mentagrophytus RRL 305, read-out: MIC values): > 100 µg/mL; MIC [9]: > 100 µg/mL; MIC [10]: 100 µg/mL (≈ 288 µM); MIC [11, 41]: > 100 µg/mL; MIC ([11]; Trichophyton equinum 856-71, read-out: MIC values): 50 µg/mL (≈ 144 µM)
